# In ChEMBL document CHEMBL1201862, “PubChem BioAssay data set” (2004):
# Active and inactive are the calls of the source.
# Experiments:
# [1] = target: T1, E3 ubiquitin-protein ligase XIAP (Homo sapiens, UniProt P98170); assay: Counter Screen using XIAP-Bir3 for Chemical Antagonists of Bir1/2 domains of IAP-family anti-apoptotic proteins. [Related pubchem assays (depositor defined):AID1018, AID1449, AID1514, AID1638, AID1749, AID1750, AID488957, AID488963]
# [2] = target: T1, E3 ubiquitin-protein ligase XIAP; assay: small molecules displacing peptide from XIAP – biochemical, IAP family, fluorescence polarization (AID 1018); assay type: functional
# [3] = alpha-synuclein stem-loop luciferase translation blockers – H4 neuroglioma cells, luminescence, confirmation (AID 1988); assay type: functional, cell-based
# [4] = Luminescence Cell-Based Dose Response HTS to Identify Inhibitors of 5'UTR Stem-Loop Driven Prion Protein mRNA Translation in H4 Neuroglioblastoma Cells. [Related pubchem assays: 1827 (Project Summary), 1813 (Primary HTS)]; assay type: functional
# [5] = luciferase reporter signal suppression in cells – H4 neuroglioma cells, luminescence, dose response (AID 1990); assay type: functional, cell-based
# [6] = Luminescence Cell-Based Dose HTS Response to Identify Inhibitors of 5'UTR Stem-Loop Driven Prion Protein mRNA Translation in H4-C Neuroglioblastoma Cells. [Related pubchem assays (depositor defined):AID1814, AID1827]; assay type: functional
# [7] = Luminescence Cell-Based Dose Response HTS to Identify Activators of Luciferase Translation or Activity in H4-C Neuroglioblastoma Cells. [Related pubchem assays: 1829 (Project Summary), 1814 (Primary HTS)]; assay type: functional
# [8] = Luminescence Cell-Based Dose Confirmation HTS to Identify Inhibitors of 5'UTR Stem-Loop Driven Alpha-Synuclein mRNA Translation in H4 Neuroglioblastoma Cells. [Related pubchem assays: 1827 (Project Summary), 1813 (Primary HTS)]; assay type: functional
# [9] = Luminescence Cell-Based Dose Retest to Confirm Activators of 5'UTR Stem-Loop Driven Alpha-Synuclein mRNA Translation in H4 Neuroglioblastoma Cells. [Related pubchem assays (depositor defined):AID1813, AID1829]; assay type: functional
# [10] = Luminescence Cell-Based Dose Response HTS to Identify Inhibitors of Luciferase Translation or Activity in H4-C Neuroglioblastoma Cells. [Related pubchem assays: 1813 (Primary HTS), 1827 (Project Summary)]; assay type: functional
# [11] = Luminescence Cell-Based Dose Response HTS to Identify Activators of 5'UTR Stem-Loop Driven Prion Protein mRNA Translation in H4-C Neuroglioblastoma Cells. [Related pubchem assays: 1829 (Project Summary), 1814 (Primary HTS)]; assay type: functional
# cells = assay type: functional
# Vero [12] = assay: cells; assay type: functional; conditions: Chlorocebus sabaeus
# Streptococcus = assay: GAS UMAA2166 growth inhibition – luminescence, BacTiterGlo, counter-screen for streptokinase expression inhibitor project, dose response (AID 1915); assay type: functional, organism-based;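 further: potency for reduction of bacterial viability or growth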
# [13] = Vero E6 cell cytotoxicity, dose response, cytotoxicity control for non-replicating M. tuberculosis project, secondary assay (AID 492998); assay type: functional, VeroE6; conditions: Vero C1008
# [14] = THP-1 cell cytotoxicity, dose response, cytotoxicity control for non-replicating M. tuberculosis project (AID 489025); assay type: functional
# Vero [15] = assay: cells; assay type: functional, cell-based; conditions: Chlorocebus sabaeus
# [16] = tested on: Streptococcus sp. 'group A'; assay: Streptococcus pyogenes SK(-)GAS viability under kanamycin – luminescence, BacTiterGlo, confirmation, counter-screen for streptokinase expression inhibitor project, dose response (AID 1900); assay type: functional, organism-based
# [17] = HepG2 cell cytotoxicity, dose response, cytotoxicity control for non-replicating M. tuberculosis project (AID 489018); assay type: functional; conditions: Mycobacterium tuberculosis
# [18] = target: T2, Alkaline phosphatase, tissue-nonspecific isozyme (Homo sapiens, UniProt P05186); assay: potency against alkaline phosphatase TNAP – biochemical, luminescent, dose response, SAR follow-up (AID 1056)
# T2 sequence (P05186 whole entry): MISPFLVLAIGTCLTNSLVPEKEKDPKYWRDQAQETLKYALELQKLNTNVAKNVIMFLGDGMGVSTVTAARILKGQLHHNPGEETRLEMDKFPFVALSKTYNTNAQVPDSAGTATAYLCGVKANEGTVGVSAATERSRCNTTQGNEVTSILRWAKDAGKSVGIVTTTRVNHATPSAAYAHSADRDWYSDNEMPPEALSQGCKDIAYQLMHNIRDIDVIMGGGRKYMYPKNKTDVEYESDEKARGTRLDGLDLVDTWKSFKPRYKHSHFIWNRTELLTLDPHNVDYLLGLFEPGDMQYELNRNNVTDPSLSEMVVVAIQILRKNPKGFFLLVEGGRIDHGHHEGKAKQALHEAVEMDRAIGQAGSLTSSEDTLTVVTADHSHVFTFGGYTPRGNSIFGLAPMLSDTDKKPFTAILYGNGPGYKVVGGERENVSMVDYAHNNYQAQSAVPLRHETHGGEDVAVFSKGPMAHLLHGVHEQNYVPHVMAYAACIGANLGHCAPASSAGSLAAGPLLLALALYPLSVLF
# [19] = target: Glyceraldehyde-3-phosphate dehydrogenase (Homo sapiens, UniProt P04406)
# BJ [20] = assay: BJ-TERT-LT-ST fibroblast viability loss – cell-based, RAS-independent, luminescence, dose response (AID 1935); assay type: functional; conditions: Homo sapiens;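 further: BJ fibroblasts immortalized with TERT plus LT and ST oncogenes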
# [21] = DRD fibroblast viability loss – cell-based, non-viral oncogenic, luminescence, dose response (AID 1934); assay type: functional; conditions: Homo sapiens
# BJ [22] = assay: cells; assay type: functional, cell-based; conditions: Homo sapiens
# BJ [23] = assay: BJ-TERT fibroblast viability loss – cell-based, RAS-independent, luminescence, dose response (AID 1933); assay type: functional; conditions: Homo sapiens
# [24] = target: T3, Voltage-gated N-type calcium channel alpha-1B subunit/Amyloid beta A4 precursor protein-binding family A member 1 (Homo sapiens, UniProt Q00975+Q02410); assay: disruptors of Mint-PDZ/N-type channel peptide interaction – biochemical, HTRF, set 2, SAR follow-up (AID 434980); assay type: functional
# T3 sequence (Q00975 whole entry): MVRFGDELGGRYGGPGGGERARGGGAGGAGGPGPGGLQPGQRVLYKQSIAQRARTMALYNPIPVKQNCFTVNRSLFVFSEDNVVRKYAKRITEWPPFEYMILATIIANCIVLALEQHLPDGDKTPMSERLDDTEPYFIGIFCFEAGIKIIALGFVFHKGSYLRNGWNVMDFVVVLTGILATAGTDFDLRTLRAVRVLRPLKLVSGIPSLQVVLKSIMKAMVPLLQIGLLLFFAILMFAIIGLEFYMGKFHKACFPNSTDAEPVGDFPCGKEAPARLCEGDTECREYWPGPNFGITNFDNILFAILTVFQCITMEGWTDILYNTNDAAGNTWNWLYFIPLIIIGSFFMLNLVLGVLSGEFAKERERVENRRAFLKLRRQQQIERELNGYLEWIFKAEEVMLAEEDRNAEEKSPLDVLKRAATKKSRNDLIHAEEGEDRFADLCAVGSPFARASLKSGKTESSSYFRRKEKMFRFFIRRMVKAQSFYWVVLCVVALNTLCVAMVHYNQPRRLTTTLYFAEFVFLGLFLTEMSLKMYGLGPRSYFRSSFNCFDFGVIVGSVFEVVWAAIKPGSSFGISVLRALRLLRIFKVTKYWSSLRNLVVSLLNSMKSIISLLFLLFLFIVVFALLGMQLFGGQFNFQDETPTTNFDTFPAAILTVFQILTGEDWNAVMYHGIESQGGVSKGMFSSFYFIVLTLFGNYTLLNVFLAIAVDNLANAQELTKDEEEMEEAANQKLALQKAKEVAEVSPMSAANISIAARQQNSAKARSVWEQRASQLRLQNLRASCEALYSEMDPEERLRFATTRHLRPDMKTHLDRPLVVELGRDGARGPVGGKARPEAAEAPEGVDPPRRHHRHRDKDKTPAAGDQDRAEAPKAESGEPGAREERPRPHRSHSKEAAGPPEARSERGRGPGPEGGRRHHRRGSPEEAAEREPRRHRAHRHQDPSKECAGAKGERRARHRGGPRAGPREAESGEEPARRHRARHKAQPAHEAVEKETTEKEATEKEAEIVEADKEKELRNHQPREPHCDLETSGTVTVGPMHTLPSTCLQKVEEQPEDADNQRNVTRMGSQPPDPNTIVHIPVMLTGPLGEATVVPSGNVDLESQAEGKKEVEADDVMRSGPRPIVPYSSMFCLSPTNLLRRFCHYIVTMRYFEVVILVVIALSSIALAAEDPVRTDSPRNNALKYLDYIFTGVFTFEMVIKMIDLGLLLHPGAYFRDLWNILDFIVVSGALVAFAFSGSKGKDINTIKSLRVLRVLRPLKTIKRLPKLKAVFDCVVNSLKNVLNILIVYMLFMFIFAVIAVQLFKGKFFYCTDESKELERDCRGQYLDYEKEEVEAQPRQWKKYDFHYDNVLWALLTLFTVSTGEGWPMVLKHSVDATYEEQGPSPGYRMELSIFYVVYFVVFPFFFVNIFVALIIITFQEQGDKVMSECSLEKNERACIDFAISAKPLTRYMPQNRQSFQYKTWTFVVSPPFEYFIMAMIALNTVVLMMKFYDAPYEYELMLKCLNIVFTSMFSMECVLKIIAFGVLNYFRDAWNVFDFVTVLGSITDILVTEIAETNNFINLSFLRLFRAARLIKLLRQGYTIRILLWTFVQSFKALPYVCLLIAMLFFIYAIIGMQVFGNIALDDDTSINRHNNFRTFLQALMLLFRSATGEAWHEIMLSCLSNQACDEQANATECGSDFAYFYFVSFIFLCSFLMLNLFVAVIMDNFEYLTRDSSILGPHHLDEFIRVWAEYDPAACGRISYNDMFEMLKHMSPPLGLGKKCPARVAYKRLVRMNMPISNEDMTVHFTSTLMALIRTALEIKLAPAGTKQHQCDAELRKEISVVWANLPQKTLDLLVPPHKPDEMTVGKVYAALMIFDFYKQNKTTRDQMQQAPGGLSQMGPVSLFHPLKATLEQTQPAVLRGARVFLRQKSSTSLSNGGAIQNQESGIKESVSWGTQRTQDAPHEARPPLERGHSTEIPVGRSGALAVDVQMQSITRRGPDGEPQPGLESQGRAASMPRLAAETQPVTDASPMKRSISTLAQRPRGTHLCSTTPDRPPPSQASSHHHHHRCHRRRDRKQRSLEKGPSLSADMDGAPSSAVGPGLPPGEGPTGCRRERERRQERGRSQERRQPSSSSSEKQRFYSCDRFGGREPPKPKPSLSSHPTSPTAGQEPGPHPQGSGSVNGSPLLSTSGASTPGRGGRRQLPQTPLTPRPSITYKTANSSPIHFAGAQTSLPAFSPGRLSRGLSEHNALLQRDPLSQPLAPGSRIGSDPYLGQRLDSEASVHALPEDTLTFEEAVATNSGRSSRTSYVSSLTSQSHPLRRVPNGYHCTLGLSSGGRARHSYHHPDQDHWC
# T3 sequence (Q02410 whole entry): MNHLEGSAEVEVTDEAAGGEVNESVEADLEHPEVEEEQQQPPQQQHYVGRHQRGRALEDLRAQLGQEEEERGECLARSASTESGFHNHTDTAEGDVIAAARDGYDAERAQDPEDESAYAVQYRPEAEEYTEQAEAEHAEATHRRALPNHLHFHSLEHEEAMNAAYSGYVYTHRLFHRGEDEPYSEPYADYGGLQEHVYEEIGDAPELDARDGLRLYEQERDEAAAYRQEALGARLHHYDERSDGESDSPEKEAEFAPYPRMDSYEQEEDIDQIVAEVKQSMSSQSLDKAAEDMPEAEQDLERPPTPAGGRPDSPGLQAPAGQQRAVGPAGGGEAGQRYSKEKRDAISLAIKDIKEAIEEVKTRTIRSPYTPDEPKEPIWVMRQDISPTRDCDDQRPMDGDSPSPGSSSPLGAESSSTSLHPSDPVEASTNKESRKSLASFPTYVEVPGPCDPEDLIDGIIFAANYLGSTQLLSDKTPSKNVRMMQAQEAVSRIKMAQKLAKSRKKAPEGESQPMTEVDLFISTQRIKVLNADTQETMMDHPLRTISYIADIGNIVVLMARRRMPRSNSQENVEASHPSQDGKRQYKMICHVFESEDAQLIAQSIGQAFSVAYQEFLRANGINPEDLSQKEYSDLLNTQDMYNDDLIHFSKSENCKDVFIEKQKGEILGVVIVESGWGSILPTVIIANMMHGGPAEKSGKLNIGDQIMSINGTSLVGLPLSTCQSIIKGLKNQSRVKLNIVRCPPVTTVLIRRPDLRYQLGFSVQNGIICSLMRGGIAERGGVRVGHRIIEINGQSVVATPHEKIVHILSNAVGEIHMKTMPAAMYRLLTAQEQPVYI
# SUMO E1/E2 = SUMO E1/E2 (Homo sapiens, UniProt P63279+Q9UBE0+Q9UBT2); assay: SAR analysis of SUMOylation using HTRF in an in-Vitro dose response assay. [Related pubchem assays (depositor defined):AID2006, AID2011, AID2018, AID2069, AID2658]; assay type: functional
# Chain of SUMO E1/E2 (Q9UBE0 whole entry): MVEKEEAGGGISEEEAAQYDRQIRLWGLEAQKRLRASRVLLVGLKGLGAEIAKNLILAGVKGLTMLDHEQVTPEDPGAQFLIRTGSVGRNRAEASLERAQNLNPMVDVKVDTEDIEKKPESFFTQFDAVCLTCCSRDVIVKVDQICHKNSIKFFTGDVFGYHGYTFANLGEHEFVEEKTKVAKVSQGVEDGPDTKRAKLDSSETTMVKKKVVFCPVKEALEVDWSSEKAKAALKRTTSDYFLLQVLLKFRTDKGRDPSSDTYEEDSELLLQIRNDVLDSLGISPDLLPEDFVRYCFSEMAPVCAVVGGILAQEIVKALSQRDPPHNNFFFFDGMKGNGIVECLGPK
# Chain of SUMO E1/E2 (Q9UBT2 whole entry): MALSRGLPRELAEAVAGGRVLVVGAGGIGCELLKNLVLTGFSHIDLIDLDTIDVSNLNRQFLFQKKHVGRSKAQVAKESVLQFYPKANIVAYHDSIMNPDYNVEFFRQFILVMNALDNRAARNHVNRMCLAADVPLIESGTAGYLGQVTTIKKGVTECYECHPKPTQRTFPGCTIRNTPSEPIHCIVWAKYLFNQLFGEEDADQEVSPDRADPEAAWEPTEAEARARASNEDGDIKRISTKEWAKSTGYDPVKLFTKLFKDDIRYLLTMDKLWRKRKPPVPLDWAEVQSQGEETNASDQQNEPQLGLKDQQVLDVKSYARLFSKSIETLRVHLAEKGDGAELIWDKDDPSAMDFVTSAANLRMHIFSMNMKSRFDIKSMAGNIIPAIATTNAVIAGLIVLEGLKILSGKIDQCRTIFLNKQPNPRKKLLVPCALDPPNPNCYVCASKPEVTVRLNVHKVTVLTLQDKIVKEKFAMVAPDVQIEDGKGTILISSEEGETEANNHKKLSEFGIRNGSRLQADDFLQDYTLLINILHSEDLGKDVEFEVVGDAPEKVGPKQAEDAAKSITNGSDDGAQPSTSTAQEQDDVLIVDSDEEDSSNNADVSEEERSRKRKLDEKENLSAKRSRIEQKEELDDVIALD
# Chain of SUMO E1/E2 (P63279 whole entry): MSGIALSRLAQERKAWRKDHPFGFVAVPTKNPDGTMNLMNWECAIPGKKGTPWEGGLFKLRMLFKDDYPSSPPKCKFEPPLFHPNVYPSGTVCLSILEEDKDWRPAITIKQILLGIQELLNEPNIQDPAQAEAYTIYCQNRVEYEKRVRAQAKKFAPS
# [25] = target: T3, Voltage-gated N-type calcium channel alpha-1B subunit/Amyloid beta A4 precursor protein-binding family A member 1; assay: disruptors of Mint-PDZ/N-type channel peptide interaction – biochemical, HTRF, SAR follow-up (AID 2489); assay type: functional
# T1 sequence (P98170 whole entry): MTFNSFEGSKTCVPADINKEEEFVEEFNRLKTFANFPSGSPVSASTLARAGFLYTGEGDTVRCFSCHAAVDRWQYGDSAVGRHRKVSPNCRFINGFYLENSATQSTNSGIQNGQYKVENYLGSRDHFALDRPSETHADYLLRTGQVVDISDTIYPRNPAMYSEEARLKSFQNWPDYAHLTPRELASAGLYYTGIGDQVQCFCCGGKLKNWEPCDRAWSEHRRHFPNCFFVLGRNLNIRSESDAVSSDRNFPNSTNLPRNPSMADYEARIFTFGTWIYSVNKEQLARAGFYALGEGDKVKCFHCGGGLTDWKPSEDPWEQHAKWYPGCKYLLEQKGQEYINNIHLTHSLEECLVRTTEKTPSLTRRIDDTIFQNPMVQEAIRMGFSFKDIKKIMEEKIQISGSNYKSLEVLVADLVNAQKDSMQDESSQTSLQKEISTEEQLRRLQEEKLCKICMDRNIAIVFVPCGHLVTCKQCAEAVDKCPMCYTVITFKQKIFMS
smiles,measurement,setting,value
CC(C)(Nc1ccccc1)C(=O)c1ccccc1,IC50,[1],> 100 µM (inactive)
same,IC50,[2],> 100 µM (not active)
Cc1cccc(N(C)S(=O)(=O)c2ccc(-c3cc(C)no3)s2)c1,EC50,[3],0.155 µM (active)
same,EC50,[4],10.4 µM (active)
same,EC50,[5],9.86 µM (active)
same,EC50,[6],1.15 µM (active)
same,EC50,[7],6.81 µM (inconclusive)
same,EC50,[8],33.4 µM (active)
same,EC50,[9],33.4 µM (inconclusive)
same,EC50,[10],6.81 µM (active)
same,EC50,[11],1.15 µM (inconclusive)
O=C(NNC(=S)NC(=O)c1cn(-c2ccccc2)nc1-c1ccccc1)c1ccncc1,IC50,cells,2.75 µM (active)
same,CC50,Vero [12],24.3 µM (active)
same,EC50,Streptococcus,0.94 µM (active)
same,CC50,[13],10 µM (active)
same,CC50,[14],13.6 µM (active)
same,IC50,Vero [15],24.4 µM (active)
same,EC50,[16],0.239 µM (active)
same,CC50,[17],> 20 µM (active)
CCOc1ccc(-c2cc(C(=O)O)[nH]n2)cc1,IC50,[18],19.8 µM (active)
same,IC50,[19],> 100 µM (not active)
Cc1ccc(-c2cc(C(=O)N/N=C/c3c(C)nn(-c4ccccc4)c3C)[nH]n2)cc1,EC50,[3],0.327 µM (active)
same,EC50,BJ [20],0.624 µM (inconclusive)
same,EC50,[21],0.576 µM (active)
same,EC50,[4],14 µM (active)
same,EC50,BJ [22],2.04 µM (inconclusive)
same,EC50,[5],7.44 µM (active)
same,EC50,[6],5.9 µM (active)
same,EC50,BJ [23],0.603 µM (active)
same,EC50,[7],1.75 µM (inconclusive)
same,EC50,[8],10.1 µM (active)
same,EC50,[9],2.09 µM (inconclusive)
same,EC50,[10],1.01 µM (active)
same,EC50,[11],1.28 µM (inconclusive)
COc1ccccc1CNC(=O)CNC(=O)c1cc(-c2ccco2)nc2ccccc12,IC50,[24],> 56.8 µM (inactive)
same,IC50,SUMO E1/E2,3.37 µM (active)
same,IC50,[25],23.3 µM (active)
